Assay results: patent publication US20060100431A1, “Biologically active compounds” (Amura Therapeutics Limited, priority 2002, published 2006)
Like-named read-outs stand apart in the source and are kept apart here.

Assays:
Assay type in all cases: biochemical
[1] = molecular target: T1, human cathepsin B (Homo sapiens, UniProt P07858); test: Cathepsin B peptidase activity assay (Ki)
T1 construct: purchased CN Biosciences
Protocol: Unless otherwise stated, all general chemicals and biochemicals were purchased from either the Sigma Chemical Company, Poole, Dorset, U.K or from Fisher Scientific UK, Loughborough, Leicestershire, U.K. Absorbance assays were carried out in flat-bottomed 96-well plates (Spectra; Greiner Bio-One Ltd., Stonehouse, Gloucestershire, U.K.) using a SpectraMax PLUS384 plate reader (Molecular Devices, Crawley, U.K.). […] Fluorescence assays were monitored using a SpectraMax Gemini fluorescence plate reader (Molecular Devices). For substrates employing either a 7-amino-4-methylcoumarin (AMC) or a 7-amino-4-trifluoromethylcoumarin (AFC) fluorophore, assays were monitored at an excitation wavelength of 365 nm and an emission wavelength of 450 nm and the fluorescence plate reader calibrated with AMC. For substrates employing a 3-amino-benzoyl (Abz) fluorophore, assays were monitored at an excitation wavelength of 310 nm and an emission wavelength of 445 nm; the fluorescence plate reader calibrated with 3-amino-benzamide (Fluka). Unless otherwise indicated, all the peptidase substrates were purchased from Bachem UK, St Helens, Merseyside, UK. […] Hydroxyethylpiperazine ethanesulfonate (HEPES), tris-hydroxylmethyl aminomethane (tris) base, bis-tris-propane and all the biological detergents (e.g. CHAPS, zwittergents, etc.) were purchased from CN Biosciences UK, Beeston, Nottinghamshire, U.K. Glycerol was purchased from Amersham Pharmacia Biotech, Little Chalfont, Buckinghamshire, U.K. Stock solutions of substrate or inhibitor were made up to 10 mM in 100% dimethylsulfoxide (DMSO) (Rathburns, Glasgow, U.K.) and diluted as appropriately required. In all cases the DMSO concentration in the assays was maintained at less than 1% (vol./vol.).
Enzyme was added as required to initiate the reaction and the activity, as judged by the change in fluorescence upon conversion of substrate to product, was monitored over time. All assays were carried out at 25±1° C.
Bovine cathepsin S, human cathepsin L, human cathepsin H and human cathepsin B were obtained from CN Biosciences. Recombinant human cathepsin S, human cathepsin K and human cathepsin X were obtained from Dr. Boris Turk (Josef Stefan Institute, Ljubljana, Slovenia). Unless otherwise stated, all peptidase activity assays were carried out in 10 mM bis-tris-propane (BTP), pH 6.5 containing 1 mM EDTA, 5 mM 2-mercaptoethanol and 1 mM CaCl2.
The apparent inhibition constant (Ki) for each compound was determined on the basis that inhibition was reversible and occurred by a pure-competitive mechanism. […] [formula]
[formula] Ki^app=Ki(1+[So]/KM^app) (4)
Curves were fitted by non-linear regression analysis (Prism) using a fixed value for the enzyme concentration.

[2] = molecular target: Wild-type cruzipain (Trypanosoma cruzi, UniProt P25779); test: Trypanosoma cruzi cruzipain peptidase activity assay (Ki); conditions: read-out: Ki, inhibitors of cruzain and cruzipains
Summary of the method: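 Native cruzipain from T. cruzi Dm28 epimastigotes, 2.5 nM, in 100 mM sodium phosphate pH 6.75 with 1 mM EDTA and 10 mM L-cysteine, 25 °C, DMSO <1%. Rates taken from continuous fluorogenic substrate read; Ki by regression assuming reversible pure-competitive inhibition.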

[3] = molecular target: T2, CPB2.8ΔCTE (Leishmania mexicana, UniProt P36400); test: Leishmania mexicana cysteine protease B (CPB) peptidase activity assay (Ki); conditions: Ki, inhibitors of Leismania mexicana CPB protease
T2 construct: Wild-type recombinant CPB without the C-terminal extention (i.e. CPB2.8ΔCTE); Dr. Jeremy Mottram (Wellcome Centre for Molecular Parasitology, University of Glasgow)
Summary of the method: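 Recombinant CPB2.8ΔCTE (0.25 nM) was assayed in 100 mM sodium acetate pH 5.5 with 1 mM EDTA, 200 mM NaCl and 10 mM DTT at 25 °C, DMSO <1%, enzyme added to start. Rates were taken from continuous fluorescence slopes; apparent Ki was fitted assuming reversible, pure-competitive inhibition.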

[4] = molecular target: T3, human cathepsin L (Homo sapiens, UniProt P07711); test: Cathepsin L peptidase activity assay (Ki); conditions: read-out: Ki, inhibitors of cathepsin L
T3 construct: purchased CN Biosciences
Summary of the method: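 Human cathepsin L at 1 nM with Ac-Phe-Arg-AMC at its KM^app (~20 μM) in 10 mM bis-tris-propane pH 6.5, 1 mM EDTA, 5 mM 2-mercaptoethanol, 1 mM CaCl2, DMSO <1%, 25±1° C. Reaction enzyme-initiated; AMC fluorescence (ex 365/em 450 nm) monitored over time.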

[5] = read-out: Ki, inhibitors of cathepsin B

T3 sequence (P07711 114-333): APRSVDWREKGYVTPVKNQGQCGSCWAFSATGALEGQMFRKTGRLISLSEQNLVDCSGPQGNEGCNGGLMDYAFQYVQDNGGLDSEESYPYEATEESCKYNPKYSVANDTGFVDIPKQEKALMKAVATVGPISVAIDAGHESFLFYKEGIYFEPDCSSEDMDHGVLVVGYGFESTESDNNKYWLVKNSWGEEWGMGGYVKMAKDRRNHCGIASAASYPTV
T2 sequence (P36400 126-343, stated change not applied): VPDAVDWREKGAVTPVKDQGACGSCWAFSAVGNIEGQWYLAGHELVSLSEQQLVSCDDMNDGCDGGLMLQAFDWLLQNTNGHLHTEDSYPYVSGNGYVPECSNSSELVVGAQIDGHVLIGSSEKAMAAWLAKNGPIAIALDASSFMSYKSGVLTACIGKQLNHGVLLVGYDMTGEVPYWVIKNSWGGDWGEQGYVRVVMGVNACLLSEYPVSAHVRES
Chain of Wild-type cruzipain (P25779 whole entry): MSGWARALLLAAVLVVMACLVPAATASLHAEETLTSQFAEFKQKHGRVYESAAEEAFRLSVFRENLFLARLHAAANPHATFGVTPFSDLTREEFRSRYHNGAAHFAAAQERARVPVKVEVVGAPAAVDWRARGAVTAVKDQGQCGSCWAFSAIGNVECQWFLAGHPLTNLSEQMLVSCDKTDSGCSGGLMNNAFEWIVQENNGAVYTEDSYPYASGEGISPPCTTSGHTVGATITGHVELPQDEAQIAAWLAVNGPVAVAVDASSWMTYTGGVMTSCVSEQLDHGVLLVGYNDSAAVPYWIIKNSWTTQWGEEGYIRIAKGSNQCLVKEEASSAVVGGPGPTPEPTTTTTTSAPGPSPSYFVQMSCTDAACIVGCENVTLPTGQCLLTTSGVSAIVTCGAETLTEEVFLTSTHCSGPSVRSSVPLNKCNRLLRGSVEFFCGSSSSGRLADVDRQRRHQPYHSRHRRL

CC(C)C[C@H](NC(=O)c1ccc(N(C)C)cc1)C(=O)N1CC[C@@H]2[C@H]1C(=O)CN2C(=O)c1ccc2c(c1)OCO2 [Example 77, (3aR,6aS)-N-{(1S)-1-[4-(Benzo[1,3]dioxole-5-carbonyl)-6-oxo-hexahydro-pyrrolo[3,2-b]pyrrole-1-carbonyl]-3-methyl-butyl}-4-dimethylamino-benzamide]
Ki [1, 5]: < 5 µM
Ki [2]: < 5 µM
Ki [3]: < 5 µM

CC(C)C[C@H](NC(=O)c1ccc(N(C)C)cc1)C(=O)N1CC[C@@H]2[C@H]1C(=O)CN2C(=O)c1ccc2cc[nH]c2c1 [Example 99, (3aR,6aS)-4-Dimethylamino-N-{(1S)-1-[4-(1H-indole-6-carbonyl)-6-oxo-hexahydro-pyrrolo[3,2-b]pyrrole-1-carbonyl]-3-methyl-butyl}-benzamide]
Ki [1, 5]: < 5 µM
Ki [2]: < 5 µM
Ki [3]: < 5 µM

CC(C)C[C@H](NC(=O)c1ccc(N(C)C)cc1)C(=O)N1CC[C@@H]2[C@H]1C(=O)CN2C(=O)c1ccc2nonc2c1 [Example 102, (3aR,6aS)-N-{(1S)-1-[4-(Benzo[1,2,5]oxadiazole-5-carbonyl)-6-oxo-hexahydro-pyrrolo[3,2-b]pyrrole-1-carbonyl]-3-methyl-butyl}-4-dimethylamino-benzamide]
Ki [1, 5]: < 5 µM
Ki [2]: < 5 µM
Ki [3]: < 5 µM

CC(C)C[C@H](NC(=O)c1ccc(N(C)C)cc1)C(=O)N1CC[C@@H]2[C@H]1C(=O)CN2C(=O)C1CCCCCC1 [Example 135, (3aR,6aS)-N-[(1S)-1-(4-Cycloheptanecarbonyl-6-oxo-hexahydro-pyrrolo[3,2-b]pyrrole-1-carbonyl)-3-methyl-butyl]-4-dimethylamino-benzamide]
Ki [1]: < 5 µM
Ki [2]: < 5 µM
Ki [3]: < 5 µM

CCC(C)CC(=O)N1CC(=O)[C@@H]2[C@H]1CCN2C(=O)[C@H](CC(C)C)NC(=O)c1ccc(N(C)C)cc1 (stereo partly drawn) [Example 141, (3aR,6aS)-4-Dimethylamino-N-{(1S)-3-methyl-1-[4-(3-methyl-pentanoyl)-6-oxo-hexahydro-pyrrolo[3,2-b]pyrrole-1-carbonyl]-butyl}-benzamide]
Ki [1, 5]: < 5 µM
Ki [2]: < 5 µM
Ki [3]: < 5 µM

CC(C)C[C@H](NC(=O)c1ccc(N(C)C)cc1)C(=O)N1CC[C@@H]2[C@H]1C(=O)CN2C(=O)c1ccc(Cl)s1 [Example 166, (3aR,6aS)-N-{(1S)-1-[4-(5-Chloro-thiophene-2-carbonyl)-6-oxo-hexahydro-pyrrolo[3,2-b]pyrrole-1-carbonyl]-3-methyl-butyl}-4-dimethylamino-benzamide]
Ki [1, 5]: < 5 µM
Ki [2]: < 5 µM
Ki [3]: < 5 µM

O=C(N[C@@H](CSCc1ccccc1)C(=O)N1CC[C@@H]2[C@H]1C(=O)CN2C(=O)c1ccccc1)c1ccsc1 [Example 251, (3aR,6aS)-Thiophene-3-carboxylic acid [(1R)-2-(4-benzoyl-6-oxo-hexahydro-pyrrolo[3,2-b]pyrrole-1-yl)-1-benzylsulfanylmethyl-2-oxo-ethyl]-amide]
Ki [4]: < 5 µM
Ki [1, 5]: < 5 µM

O=C(N[C@@H](CC1CCCCC1)C(=O)N1CC[C@@H]2[C@H]1C(=O)CN2C(=O)c1ccc(-c2ccccc2)s1)c1ccsc1 [Example 258, (3aR,6aS)-Thiophene-3-carboxylic acid {(1S)-1-cyclohexylmethyl-2-oxo-2-[6-oxo-4-(5-phenyl-thiophene-2-carbonyl)-hexahydro-pyrrolo[3,2-b]pyrrole-1-yl]-ethyl}-amide]
Ki [4]: < 5 µM
Ki [1, 5]: < 5 µM

O=C(N[C@@H](CC1CCCCC1)C(=O)N1CC[C@@H]2[C@H]1C(=O)CN2C(=O)c1ccccc1)c1cccc(Oc2ccccc2)c1 [Example 259, (3aR,6aS)-N-[(1S)-2-(4-Benzoyl-6-oxo-hexahydro-pyrrolo[3,2-b]pyrrol-1-yl)-1-cyclohexylmethyl-2-oxo-ethyl]-3-phenoxy-benzamide]
Ki [4]: < 5 µM
Ki [1, 5]: < 5 µM
